Read-outs that look alike come from different tables or passages of the source.
Assays:
endogenous AT1R = biological target: T1, endogenous AT1R (Rattus norvegicus, UniProt P25095); assay: Rho BRET sensor in rat primary VSMC with endogenous AT1R; type: cell-based; details: for Emax Rho in VSMCs (% AngII): Rho sensor, for 12 and TRV027 response at 10 μM; for EC50: adenoviral Rho BRET sensor, 1 min 30 s stimulation, mean ± SEM of at least three to five independent experiments, read-out: EC50 Rho in VSMCs
T1 construct: expressing low levels of endogenous AT1R; endogenous in cells; host or cells: rat primary VSMC, passages 13-15
T1 sequence (P25095 1-359): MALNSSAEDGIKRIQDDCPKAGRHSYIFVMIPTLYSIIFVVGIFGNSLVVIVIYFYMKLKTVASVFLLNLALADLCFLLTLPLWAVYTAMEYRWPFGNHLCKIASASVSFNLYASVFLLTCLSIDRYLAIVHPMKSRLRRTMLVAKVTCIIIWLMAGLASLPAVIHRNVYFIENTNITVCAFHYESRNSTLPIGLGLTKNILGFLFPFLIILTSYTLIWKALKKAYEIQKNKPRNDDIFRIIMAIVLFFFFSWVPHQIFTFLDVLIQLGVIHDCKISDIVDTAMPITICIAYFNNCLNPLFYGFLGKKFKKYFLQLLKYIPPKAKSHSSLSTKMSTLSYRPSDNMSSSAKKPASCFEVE
Description: We next assessed the analogs’ ability to engage Gαq by assessing either the PKC or Rho responses in rat primary vascular smooth muscle cell (VSMC) culture, expressing low levels of endogenous AT1R (between 25–50 fmol/mg) (Figure 4, Table 6).
The coding regions of the PKC-c1b sensor, PKN-RBD-RlucII, and rGFPcaax were PCR-amplified and subcloned into the KpnI/XhoI sites of the pENTR3C vector (Invitrogen), respectively. These were then transferred into the adenoviral expression vector pAd/CMV/V5-DEST (Invitrogen), via gateway cloning (pAD-CMV-PKC-c1b, pAD-CMV-PKN-RBD-RLucII, and pAD-CMV-rGFPcaax). Viruses containing the sensor codes were generated following a previously outlined process.[49] […] The following day, cells were transfected with 4 µg of PacI-digested pAd5-CMVsensors using Lipofectamine 2000 (Invitrogen). After 7–10 days post-transfection, mature virus particles were gleaned via the collection of cells and media, which then underwent multiple cycles of freezing and thawing, followed by centrifugation. The harvested virus was amplified by re-infection on 100-mm dishes of confluent HEK293A cells, and harvested 48-72 h later. Viral titers were determined by serial dilution of adenovirus stock and subsequent infection of HEK293A cells in 96-well plates. 36 h after infection, cells were stained using an anti-hexon antibody (ab8249; Abcam), and hexon-expressing cells were tallied via fluorescence microscopy. The virus was then stored at −80°C. After this, rat VSMCs (between the 13th to 15th passages) were seeded at a density of 20,000 cells in each well of white 96-well plates 24 h before transduction with the viral vector. The cells were then transduced with the PKC sensor-adenovirus (3 μL per well) or Rho sensor (1 μL each per well of PKN-RBD-RLucII-adnovirus and rGFP-caax adenovirus). After 24 h, the medium was replaced. 48 h post-viral transduction, the cells were thoroughly washed with Tyrode’s buffer. Finally, BRET assays were carried out as detailed below.
On the day of the experiment, each well was washed with 80 µL of Tyrode’s buffer (140 mM NaCl, 2.7 mM KCl, 1 mM CaCl2, 12 mM NaHCO3, 5.6 mM D-glucose, 0.5 mM MgCl2, 0.37 mM NaH2PO4, 25 mM Hepes (pH 7.4)). This was followed by incubation for 1 h in Tyrode’s buffer at room temperature. For the Gαq, β-arrestin-2, and PKC biosensors used in HEK293 cells, coelenterazine 400A (at a final concentration of 5 μM) was added 10 min before stimulation. Cells were then stimulated with increasing doses of the indicated ligand, and BRET signals were measured using a Tristar2 (Berthold) microplate reader 10 min later. For the PKC and Rho biosensors in VSMCs, and the Rho biosensor in ΔG12/13 cells, cells were similarly stimulated with ligands for 1 min, 1 min 30 s, and 3 min, respectively, before BRET measurement. […] BRET signals were then measured using a Synergy2 (BioTek) microplate reader. The applied filter set was 410/80 nm and 515/30 nm, designed to detect the light emissions of RlucII (Renilla luciferase) (donor) and rGFP (acceptor), respectively.

AT1R = biological target: T2, AT1R (Homo sapiens, UniProt P30556); assay: 125I-AngII displacement binding on HEK293 cells expressing human AT1R; set-up: expressed in transfected cells; host or cells: HEK293 cells, transient; freeze-thaw broken cells; details: SEM; read-out: Ki (apparent affinity)
T2 sequence (P30556 1-359): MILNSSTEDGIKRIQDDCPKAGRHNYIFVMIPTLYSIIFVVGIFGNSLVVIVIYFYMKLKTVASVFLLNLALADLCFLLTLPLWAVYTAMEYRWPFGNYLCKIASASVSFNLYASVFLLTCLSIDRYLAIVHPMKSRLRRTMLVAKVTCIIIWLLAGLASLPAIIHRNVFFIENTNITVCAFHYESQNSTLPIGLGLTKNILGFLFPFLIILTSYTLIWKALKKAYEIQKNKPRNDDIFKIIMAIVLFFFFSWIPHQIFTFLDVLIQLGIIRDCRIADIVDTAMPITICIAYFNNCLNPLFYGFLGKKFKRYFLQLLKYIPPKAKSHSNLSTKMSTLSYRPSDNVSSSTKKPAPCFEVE
Description: HEK293 cells, transiently expressing the human AT1R (3 million cells transfected with 4 μg of AT1R plasmid), were washed once with PBS and submitted to one freeze-thaw cycle. […] Binding assays were carried out in 96-well plates. […] The incubation mixtures were filtered through binding plates (MultiScreen HTS, Merck Millipore, Cork, Ireland) and preincubated with the washing buffer for 1 h at 4°C to remove unbound ligands. The filtered membranes were washed thrice with 200 µL cold binding buffer (4°C). The filters with membranes were retrieved with punch tips (Filter Plates Punch Tips, Merck Millipore, Cork, Ireland). […] The dissociation constant (Ki value) was determined from the IC50 using the Cheng-Prusoff equation and presented as a mean ± SEM of three independent experiments, each conducted in duplicate. VSMC cells were seeded at 80,000 cells per well in poly-ornithine-coated 24-wells. […] The next day, cells were washed thrice with ice-cold PBS, solubilized in 0.5 mL of 0.2 M NaOH/0.05% SDS, and bound radioactivity was counted using a PerkinElmer Wizard 1470 automatic γ-counter. Protein quantities were evaluated using a Bradford assay.

SMILES | Emax Rho in VSMCs (% AngII) (endogenous AT1R) | EC50 (endogenous AT1R; SEM) | Ki (AT1R) | EC50 (endogenous AT1R)
CC[C@H](C)[C@H](NC(=O)[C@H](Cc1ccc(O)cc1)NC(=O)[C@@H](NC(=O)[C@H](CCCNC(=N)N)NC(=O)[C@@H](N)CC(=O)O)C(C)C)C(=O)N[C@@H](Cc1c[nH]cn1)C(=O)N1CCC[C@H]1C(=O)N[C@@H](Cc1ccc(OC)cc1)C(=O)O [compound 11] | 92 % AngII | 39.1 ± 11 nM | 0.23 ± 0.18 nM | 
CC[C@H](C)[C@H](NC(=O)[C@H](Cc1ccc(O)cc1)NC(=O)[C@@H](NC(=O)[C@H](CCCNC(=N)N)NC(=O)[C@@H](N)CC(=O)O)C(C)C)C(=O)N[C@@H](Cc1c[nH]cn1)C(=O)N1CCC[C@H]1C(=O)N[C@@H](Cc1ccc(OCc2ccccc2)cc1)C(=O)O [compound 12] | 12 % AngII |  | 1.4 ± 0.2 nM | > 10000 nM
